Like-named read-outs stand apart in the source and are kept apart here.
What was measured:
CBL-B (residues 36-427) = target: T1, CBL-B (residues 36-427) (Homo sapiens, UniProt Q13191); test: Ligand Displacement Assay (LDA), HTRF competitive binding against BODIPY-labeled fluorescent tracer, CBL-B; details: geometric mean of the number of tests, read-out: CBL-B Ki (nM) GMean
T1 construct: Purified CBL-B (residues 36-427) and C-CBL (residues 46-435) proteins from baculovirus-infected insect cells; made in house; host or cells: baculovirus-infected insect cells
Outline: (§1)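 First, the insect-cell-expressed protein is biotinylated at its amino-terminal AviTag with BirA and coupled to SA-Tb. Next, the tracer KD is determined for each protein. Finally, compounds are titrated three-fold in duplicate […], at 2% DMSO, and Ki is reported as a geometric mean.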

C-CBL (residues 46-435) = target: T2, C-CBL (residues 46-435) (Homo sapiens, UniProt P22681); test: Ligand Displacement Assay (LDA), HTRF competitive binding against BODIPY-labeled fluorescent tracer, C-CBL; details: geometric mean of the number of tests, read-out: C-CBL Ki (nM) GMean
T2 construct: Purified CBL-B (residues 36-427) and C-CBL (residues 46-435) proteins from baculovirus-infected insect cells; made in house; host or cells: baculovirus-infected insect cells
T2 sequence (P22681 46-435): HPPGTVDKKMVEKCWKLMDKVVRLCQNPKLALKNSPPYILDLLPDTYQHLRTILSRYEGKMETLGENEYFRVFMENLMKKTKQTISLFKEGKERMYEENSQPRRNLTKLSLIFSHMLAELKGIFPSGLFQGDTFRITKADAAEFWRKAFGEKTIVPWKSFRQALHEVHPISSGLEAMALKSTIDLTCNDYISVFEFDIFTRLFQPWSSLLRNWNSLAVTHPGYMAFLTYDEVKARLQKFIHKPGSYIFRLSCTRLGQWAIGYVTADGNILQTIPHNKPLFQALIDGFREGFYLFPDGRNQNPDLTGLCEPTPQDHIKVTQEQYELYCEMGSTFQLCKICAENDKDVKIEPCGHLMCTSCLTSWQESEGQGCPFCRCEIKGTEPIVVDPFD
Outline: as §1

CBL-B = target: T3, CBL-B (Homo sapiens, UniProt Q13191); test: Jurkat HiBit-IL2 assay (c-CBL KO), reporter cell line expressing CBL-B only; format: cell-based; details: geometric mean, read-out: C-CBL KO EC50 (nM) GMean
T3 construct: endogenous in cells; host or cells: Jurkat HiBit-IL2 reporter cells, C-CBL knocked out by CRISPR
Text: (§2) Jurkat HiBit-IL2 Assay (WT, c-CBL KO, CBL-B KO)
(§3) The purpose of the Jurkat HiBit-IL2 assay is to evaluate the effect of the inhibition of CBL-B and/or C-CBL on TCR/CD28 stimulated interleukin-2 (IL-2) secretion.
(§4) The expression of IL-2 can then be accurately measured by HiBit luciferase assay. Further, C-CBL or CBL-B was knocked out by CRISPR respectively in this Jurkat HiBit-IL2 reporter cell line to create reporter cell line expressing CBL-B only (c-CBL knockout (KO)) or C-CBL only (CBL-B KO).
(§5) All three reporter cell lines were maintained in RPMI-1640 media with GlutaMax, 10% fetal bovine serum, 100 units/ml of penicillin, and 100 μg/ml of streptomycin at 37° C., 5% CO2, at a cell density 1×10e5-2×10e6 viable cells/ml. Serial diluted compounds in DMSO (40 nl/well, final 0.1% DMSO in assay cell culture) were plated into 384-well white-wall clear-bottom cell culture plates. Reporter cells were pelleted and resuspended in fresh cell culture medium to 0.66×10e6 cells/ml and added to the assay plate at 30 μl/well (20,000 cells/well). The cells were incubated with compounds for 1 hour at 37° C., 5% CO2. 10 μl/well of anti-CD3 antibody (OKT3) and anti-CD28 antibody (CD28.2) prediluted in fresh cell culture medium at 4× final concentration (anti-CD3 mAb: 4 μg/ml; anti-CD28 mAb: 8 μg/ml) was added into the cells (final concentration of anti-CD3 mAb: 1 μg/ml; anti-CD28 mAb: 2 μg/ml). The cells were cultured for another 4 hours at 37° C., 5% CO2. The Nano-Glo HiBiT Lytic Reagent was prepared following the manufacturer's protocol. 20 ul/well of the Nano-Glo HiBiT Lytic Reagent was added into the reporter cell culture assay plate and incubated at room temperature (20-25° C.) for 15 minutes. The plates were read on a Perkin-Elmer EnVision plate reader with 0.1 second integration time. Data were normalized to “Fold of Effect” with the anti-CD3 and anti-CD28 antibodies only samples as the baseline activation level and EC50 was calculated. The EC50 (nM) values reported are the geometric means (GMean) of the number of tests conducted.

C-CBL = target: T4, C-CBL (Homo sapiens, UniProt P22681); test: Jurkat HiBit-IL2 assay (CBL-B KO), reporter cell line expressing C-CBL only; format: cell-based; details: geometric mean, read-out: CBL-B KO EC50 (nM) GMean
T4 construct: endogenous in cells; host or cells: Jurkat HiBit-IL2 reporter cells, CBL-B knocked out by CRISPR
Text: as §2, §3, §4, §5

[1] = C-CBL KO (expressing CBL-B only), Table 16b (further repetition)
[2] = CBL-B KO (expressing C-CBL only), Table 16b (further repetition)
[3] = c-CBL KO (CBL-B only), anti-CD3/anti-CD28 stimulation 4 hours, Table 16a
[4] = CBL-B KO (C-CBL only), anti-CD3/anti-CD28 stimulation 4 hours, Table 16a

SMILES	Ki (CBL-B (residues 36-427)) [nM]	Ki (C-CBL (residues 46-435)) [nM]	EC50 (CBL-B; [1]) [nM]	EC50 (C-CBL; [2]) [nM]	EC50 (CBL-B; [3]) [nM]	EC50 (C-CBL; [4]) [nM]
CC[C@H](c1cccc(-c2n[nH]c3c([C@@H](C)NC[C@H](C)O)nc(C(F)(F)F)cc23)c1)c1nncn1C (single isomer, unassigned) [Example D77]	0.8	4.5	33	93	–	–
C[C@@H](N[C@@H]1CC[C@@H]1O)c1nc(C(F)(F)F)cc2c(-c3cccc([C@H](c4nncn4C)C4CCC4)c3)n[nH]c12 (single isomer, unassigned) [Example D29]	1.9	23.7	36	224	11	139
C[C@H](N[C@@H]1CC[C@H]1O)c1nc(C(F)(F)F)cc2c(-c3cccc([C@H](c4nncn4C)C4CCC4)c3)n[nH]c12 (single isomer, unassigned) [Example D23]	1.8	9.9	21	124	6	63
C[C@@H](NC1(CO)CCC1)c1nc(C(F)(F)F)cc2c(-c3cccc([C@H](c4nncn4C)C4CCC4)c3)n[nH]c12 (single isomer, unassigned) [Example D73]	12.1	157	118	639	–	–
CC(NC1CCC1)c1nc(C2CC2)cc2c(-c3cccc(C4(Cc5nncn5C)COC4)c3)n[nH]c12 (single isomer, unassigned) [Example H4, N-{(1ξ)-1-[5-cyclopropyl-3-(3-{3-[(4-methyl-4H-1,2,4-triazol-3-yl)methyl]oxetan-3-yl}phenyl)-1H-pyrazolo[3,4-c]pyridin-7-yl]ethyl}cyclobutanamine]	1	4.5	11	28	5	43
CC(NCCO)c1nc(C(F)(F)F)cc2c(-c3cccc([C@H](c4nncn4C)C4CCCCC4)c3)n[nH]c12 (single isomer, unassigned) [Example C39]	7.4	73.2	108	615	35	496
CC(C)[C@H]1CN(C)CCN1Cc1nc(C(F)(F)F)cc2c(-c3cccc([C@H](c4nncn4C)C4CCC4)c3)n[nH]c12 [Example D32, 3-{3-[(R)-cyclobutyl(4-methyl-4H-1,2,4-triazol-3-yl)methyl]phenyl}-7-{[(2S)-4-methyl-2-(propan-2-yl)piperazin-1-yl]methyl}-5-(trifluoromethyl)-1H-pyrazolo[3,4-c]pyridine]	1.3	10.2	12	134	8	175
C[C@H](N[C@@H]1COC[C@H]1O)c1nc(C(F)(F)F)cc2c(-c3cccc([C@H](c4nncn4C)C4CCC4)c3)n[nH]c12 (single isomer, unassigned) [Example D59]	2.6	26.6	267	1260	–	–
C[C@H](N[C@@H]1CC[C@H](O)C1)c1nc(C(F)(F)F)cc2c(-c3cccc([C@H](c4nncn4C)C4CCC4)c3)n[nH]c12 [Example C49, (1S,3R)-3-({(1S)-1-[3-{3-[(R)-cyclobutyl(4-methyl-4H-1,2,4-triazol-3-yl)methyl]phenyl}-5-(trifluoromethyl)-1H-pyrazolo[3,4-c]pyridin-7-yl]ethyl}amino)cyclopentanol]	2.1	20.9	–	–	8	135
CC(O)CNC(C)c1nc(C2CC2)cc2c(-c3cccc(C(c4nncn4C)C4CCC4)c3)n[nH]c12 (single isomer, unassigned) [Example H2]	1.4	18.3	41	165	17	232
C[C@H](O)C(=O)N[C@@H](C)c1nc(C(F)(F)F)cc2c(-c3cccc([C@H](c4nncn4C)C4CCC4)c3)n[nH]c12 (single isomer, unassigned) [Example I3]	0.8	0.7	6	15	3	17
C[C@H](c1nc(C(F)(F)F)cc2c(-c3cccc([C@H](c4nncn4C)C4CCC4)c3)n[nH]c12)N1CC[C@H]1CO (single isomer, unassigned) [Example D65]	13.7	110	468	1180	–	–
C[C@H](c1nc(C(F)(F)F)cc2c(-c3cccc([C@H](c4nncn4C)C4CCC4)c3)n[nH]c12)N1CC(C)(O)C1 (single isomer, unassigned) [Example D67]	10.9	78.5	321	1520	–	–
C[C@@H](c1nc(C(F)(F)F)cc2c(-c3cccc([C@H](c4nncn4C)C4CCC4)c3)n[nH]c12)N1CC[C@H](O)C1 (single isomer, unassigned) [Example D71]	1.3	13	77	434	–	–
CC(NCCO)c1nc(C(F)(F)F)cc2c(-c3cccc([C@H](c4nncn4C)C4CCC4)c3)n[nH]c12 (single isomer, unassigned) [Example C42]	2.5	28.2	94	635	29	316
C[C@@H](N[C@@H]1CC[C@H]1O)c1nc(C(F)(F)F)cc2c(-c3cccc([C@H](c4nncn4C)C4CCC4)c3)n[nH]c12 (single isomer, unassigned) [Example D24]	2.2	22.3	58	452	22	285
C[C@@H](N[C@@H]1CC[C@H](O)C1)c1nc(C(F)(F)F)cc2c(-c3cccc([C@H](c4nncn4C)C4CCC4)c3)n[nH]c12 [Example C118, (1S,3R)-3-({(1R)-1-[3-{3-[(R)-cyclobutyl(4-methyl-4H-1,2,4-triazol-3-yl)methyl]phenyl}-5-(trifluoromethyl)-1H-pyrazolo[3,4-c]pyridin-7-yl]ethyl}amino)cyclopentanol]	2.1	25.5	46	338	–	–
CC(O)CNC(C)c1nc(C2CC2)cc2c(-c3cccc(C(c4nncn4C)C4CCC4)c3)n[nH]c12 (single isomer, unassigned) [Example H1]	4.3	48.4	103	485	44	559

Source: patent US20260125375A1 (Pfizer Inc., priority 2022, published 2026)
